Laboratory results taken from patent US20190284168A1, “PYRAZOLE DERIVATIES AS SGC STIMULATORS” (IRONWOOD PHARMACEUTICALS, INC., priority 2014, published 2019).

Molecular target: T1, soluble guanylate cyclase (sGC) (Homo sapiens, UniProt Q02108+Q02153)
T1 construct: endogenously expressing soluble guanylate cyclase (sGC); endogenous in cells; host or cells: HEK293
T1 sequence (Q02153 1-619): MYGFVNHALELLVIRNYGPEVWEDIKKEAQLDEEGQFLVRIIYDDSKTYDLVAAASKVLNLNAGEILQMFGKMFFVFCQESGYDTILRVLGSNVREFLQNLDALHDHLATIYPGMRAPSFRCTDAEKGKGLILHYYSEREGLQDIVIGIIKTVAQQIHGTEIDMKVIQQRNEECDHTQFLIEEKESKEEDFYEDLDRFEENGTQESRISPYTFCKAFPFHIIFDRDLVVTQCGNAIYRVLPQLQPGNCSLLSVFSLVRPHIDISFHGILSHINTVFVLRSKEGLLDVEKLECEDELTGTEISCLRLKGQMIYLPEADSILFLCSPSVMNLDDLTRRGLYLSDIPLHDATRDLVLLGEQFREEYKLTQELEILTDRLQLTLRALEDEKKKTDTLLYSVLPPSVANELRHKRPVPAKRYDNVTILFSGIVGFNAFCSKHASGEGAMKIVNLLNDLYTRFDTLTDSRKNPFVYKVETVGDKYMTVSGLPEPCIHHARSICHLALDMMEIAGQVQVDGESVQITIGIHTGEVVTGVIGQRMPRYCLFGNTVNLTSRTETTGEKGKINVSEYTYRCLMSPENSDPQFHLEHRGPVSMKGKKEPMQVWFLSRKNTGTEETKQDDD
T1 sequence (Q02108 1-690): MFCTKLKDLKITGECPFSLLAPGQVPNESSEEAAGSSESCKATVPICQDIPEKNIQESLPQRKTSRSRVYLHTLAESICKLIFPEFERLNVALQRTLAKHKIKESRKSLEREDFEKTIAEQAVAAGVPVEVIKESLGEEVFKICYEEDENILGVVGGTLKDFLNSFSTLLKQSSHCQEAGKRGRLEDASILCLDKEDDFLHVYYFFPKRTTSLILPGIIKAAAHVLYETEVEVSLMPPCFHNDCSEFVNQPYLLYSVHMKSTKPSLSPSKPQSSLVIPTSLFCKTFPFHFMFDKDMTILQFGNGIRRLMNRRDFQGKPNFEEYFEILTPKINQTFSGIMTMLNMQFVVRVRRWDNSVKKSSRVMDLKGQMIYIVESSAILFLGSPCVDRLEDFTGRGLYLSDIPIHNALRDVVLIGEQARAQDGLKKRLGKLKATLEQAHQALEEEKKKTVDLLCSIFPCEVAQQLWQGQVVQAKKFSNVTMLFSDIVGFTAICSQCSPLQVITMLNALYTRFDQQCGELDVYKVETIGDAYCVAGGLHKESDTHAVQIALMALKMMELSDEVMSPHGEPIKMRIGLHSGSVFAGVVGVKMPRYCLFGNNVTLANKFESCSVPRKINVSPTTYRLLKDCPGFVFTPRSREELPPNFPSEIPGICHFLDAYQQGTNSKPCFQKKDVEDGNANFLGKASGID
Assay: sGC-HEK-cGMP assay with LC/MS detection
Assay type: cell-based
Settings: HEK293 whole cells, LC/MS detection of cGMP, 10 μM DETA-NONOate; 50% of high control response (30 μM Compound Y); read-out: Absolute EC50 (nM)- binned (~)
Protocol: Human embryonic kidney cells (HEK293), endogenously expressing soluble guanylate cyclase (sGC), were used to evaluate the activity of test compounds. Compounds stimulating the sGC enzyme should cause an increase in the intracellular concentration of cGMP. HEK 293 cells were seeded in Dulbecco's Modification of Eagle's Medium supplemented with fetal bovine serum (10% final) and penicillin (100 U/mL)/streptomycin (100 μg/mL) in a 50 μL volume at a density of 1.5×10^4 cells/well in a poly-D-lysine coated 384 well flat bottom plate. Cells were incubated overnight at 37° C. in a humidified chamber with 5% CO2. Medium was aspirated and cells were washed with 1× Hank's Buffered Saline Salt Solution (50 μL). Cells were then incubated for 15 minutes at 37° C. with 50 μL of a 0.5 mM 3-isobutyl-1-methylxanthine (IBMX) solution.
were then added to the assay mixture and the resulting mixture incubated at 37° C. for 20 minutes. After the 20 minute incubation, the assay mixture was aspirated and 10% acetic acid containing 150 ng/mL+3-cGMP (internal standard for LCMS) (50 μL) was added to the cells. The plate was incubated at 4° C. for 30 minutes in the acetic acid solution to stop the reaction and lyse the cells. The plates were then centrifuged at 1,000 g for 3 minutes at 4° C. and the supernatant transferred to a clean reaction plate for LCMS analysis.
cGMP concentrations were determined from each sample using the LCMS conditions below (Table 2) and calculated standard curve.
Data were fit using a 4-parameter fit (log(agonist) vs. response—variable slope) using GraphPad Prism Software v.5. n=2 for all compounds. […] Compounds failing to elicit a minimum response of 50% are reported as >30 μM.

Structure (SMILES)	EC50 [nM]
O=S1(=O)Cc2cnc(-c3cc(-c4ccon4)n(Cc4ccccc4F)n3)nc2C1 [Compound 3]	> 30000
NC(=O)C(=O)Nc1ccnc(-c2cc(-c3ccon3)n(Cc3ccccc3F)n2)n1 [Compound 4]	> 1000
Fc1ccccc1Cn1nc(-c2ncc(F)c(Nc3nnc(C(F)(F)F)s3)n2)cc1-c1ccon1 [Compound 11]	> 1000
NC(=O)CC(=O)Nc1ccnc(-c2cc(-c3ccon3)n(Cc3ccccc3F)n2)n1 [Compound 17]	> 30000
O=C(Nc1ccnc(-c2cc(-c3ccon3)n(Cc3ccccc3F)n2)n1)c1cc(O)no1 [Compound 27]	> 1000
O=C(CCl)NCC(=O)Nc1ccnc(-c2cc(-c3ccon3)n(Cc3ccccc3F)n2)n1 [Compound 32]	100 to 1000
Fc1ccccc1Cn1nc(-c2ncc(N3CCOCC3)cn2)cc1-c1ccon1 [Compound 37]	> 30000
O=C(O)Cc1cn(-c2nc(-c3cc(-c4ccon4)n(Cc4ccccc4F)n3)ncc2F)[nH]c1=O [Compound 38]	100 to 1000
O=C(O)Cc1c[nH]n(-c2nc(-c3cc(-c4ccon4)n(Cc4ccccc4F)n3)ncc2F)c1=O [Compound 39]	> 1000
Oc1nnc2n1CCN(c1nc(-c3cc(-c4ccon4)n(Cc4ccccc4F)n3)ncc1F)C2 [Compound 44]	< 100
O=C(Cc1c[nH]nc1O)Nc1ccnc(-c2cc(-c3ccon3)n(Cc3ccccc3F)n2)n1 [Compound 45]	> 1000
CS(=O)(=O)C1(C(=O)Nc2ccnc(-c3cc(-c4ccon4)n(Cc4ccccc4F)n3)n2)CC1 [Compound 50]	> 1000
Cn1c(=O)c(CC(N)=O)cn1-c1nc(-c2cc(-c3ccon3)n(Cc3ccccc3F)n2)ncc1F [Compound 56]	> 1000
O=C(O)C1Cn2c(nnc2C(F)(F)F)CN1c1nc(-c2cc(-c3ccon3)n(Cc3ccccc3F)n2)ncc1F (stereo not drawn) [Compound 62]	> 1000
CC(=O)c1cc(-c2ncc(F)c(N3CCS(=O)(=O)CC3)n2)nn1Cc1ccccc1F [Compound 78]	> 1000

Molecular target: T2, human recombinant soluble guanylate cyclase enzyme α1β1 (Homo sapiens, UniProt Q02108+Q02153)
T2 construct: purchased Enzo Life Sciences ALX-201-177
T2 sequence (Q02108 1-690): T1 sequence (Q02108 1-690)
T2 sequence (Q02153 1-619): T1 sequence (Q02153 1-619)
Assay: Purified human recombinant sGC α1β1 enzyme assay in the presence of DETA-NONOate (cGMP HTRF)
Assay type: biochemical
Settings: 30 uM DETA NONOate; 50% of maximal response of 30 uM Compound Y; read-out: sGC_Enz_HTRF_a1b1 EC50/IC50 Abs (Norm) (nM) Binned
Protocol: Purified human recombinant soluble guanylate cyclase enzyme α1β1 (h sGC) obtained from Enzo Life Sciences (P/N: ALX-201-177) was used to evaluate the activity of test compounds. The assay reactions contained 0.1 M Tris (pH 8.0), 0.5 mg/mL BSA, 2 mM DTT, 4 mM MgCl2, 30 uM DETA NONOate (Enzo Life Science P/N: ALX-430-014), and 12.5 ng/ml human soluble guanylate cyclase enzyme. […] Guanosine 5'-triphosphate (Sigma-Aldrich P/N: […]) was added to a final concentration of 300 μM and enzyme reactions were incubated (100 μL, 384-well plate format) at 37° C. for 20 minutes. The controls contained 3% DMSO (low control), or 30 uM of Compound Y (high control). After the 20 minute incubation, the reaction was stopped with the addition of 100 μL of ice cold 20% acetic acid. cGMP concentrations in all samples were determined using the cGMP HTRF (Cisbio P/N: 62GM2PEC) assay per manufacturer's instructions. A cGMP standard curve was fit using a 4-parameter fit (log(inhibitor) vs. response-variable slope) using GraphPad Prism Software v.6. Samples were diluted appropriately to ensure that values fell within the linear range of the standard curve. Data were fit using a 4-parameter fit (log(agonist) vs. response-variable slope) using GraphPad Prism Software v.6. The EC50 was interpolated from the curve fit and is defined as the concentration at which the compound elicits 50% of the maximal response of the 30 uM of Compound Y, the high control compound.

Structure (SMILES)	EC50 [nM]
O=S1(=O)Cc2cnc(-c3cc(-c4ccon4)n(Cc4ccccc4F)n3)nc2C1 [Compound 3]	≤ 1000
NC(=O)C(=O)Nc1ccnc(-c2cc(-c3ccon3)n(Cc3ccccc3F)n2)n1 [Compound 4]	≤ 1000
Fc1ccccc1Cn1nc(-c2ncc(F)c(Nc3nnc(C(F)(F)F)s3)n2)cc1-c1ccon1 [Compound 11]	≤ 1000
NC(=O)CC(=O)Nc1ccnc(-c2cc(-c3ccon3)n(Cc3ccccc3F)n2)n1 [Compound 17]	≤ 1000
O=C(Nc1ccnc(-c2cc(-c3ccon3)n(Cc3ccccc3F)n2)n1)c1cc(O)no1 [Compound 27]	≤ 1000
O=C(CCl)NCC(=O)Nc1ccnc(-c2cc(-c3ccon3)n(Cc3ccccc3F)n2)n1 [Compound 32]	100 to 1000
Fc1ccccc1Cn1nc(-c2ncc(N3CCOCC3)cn2)cc1-c1ccon1 [Compound 37]	≤ 1000
O=C(O)Cc1cn(-c2nc(-c3cc(-c4ccon4)n(Cc4ccccc4F)n3)ncc2F)[nH]c1=O [Compound 38]	≤ 1000
O=C(O)Cc1c[nH]n(-c2nc(-c3cc(-c4ccon4)n(Cc4ccccc4F)n3)ncc2F)c1=O [Compound 39]	≤ 1000
Oc1nnc2n1CCN(c1nc(-c3cc(-c4ccon4)n(Cc4ccccc4F)n3)ncc1F)C2 [Compound 44]	100 to 1000
O=C(Cc1c[nH]nc1O)Nc1ccnc(-c2cc(-c3ccon3)n(Cc3ccccc3F)n2)n1 [Compound 45]	≤ 1000
CS(=O)(=O)C1(C(=O)Nc2ccnc(-c3cc(-c4ccon4)n(Cc4ccccc4F)n3)n2)CC1 [Compound 50]	≤ 1000
Cn1c(=O)c(CC(N)=O)cn1-c1nc(-c2cc(-c3ccon3)n(Cc3ccccc3F)n2)ncc1F [Compound 56]	≤ 1000
O=C(O)C1Cn2c(nnc2C(F)(F)F)CN1c1nc(-c2cc(-c3ccon3)n(Cc3ccccc3F)n2)ncc1F (stereo not drawn) [Compound 62]	≤ 1000
CC(=O)c1cc(-c2ncc(F)c(N3CCS(=O)(=O)CC3)n2)nn1Cc1ccccc1F [Compound 78]	≤ 1000
